From ChEMBL document CHEMBL1201862, “PubChem BioAssay data set” (2004)
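Five compound concentrations were applied to cells in 96-well plates for 48 hours; endpoints were derived by simple linear interpolation of the resulting dose-response curve. GI50 = concentration required for 50% inhibition of growth.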 Active and inactive are the calls of the source. Rule as the data show it: active = GI50 up to about 1.1 µM and inactive = higher.

What was measured:
Experiment in all cases: NCI anticancer screen, dose series, 48 h
NCI/ADR-RES = system: NCI/ADR-RES
HCT-116 = system: HCT-116
CAKI-1 = system: CAKI-1
SW-620 = system: SW-620
TK-10 = system: TK-10
MDA-MB-231 = system: MDA-MB-231
OVCAR-8 = system: OVCAR-8
RXF 393 = system: RXF 393
HCC 2998 = system: HCC 2998
A549 = system: A549
HL-60 = system: HL-60
OVCAR-5 = system: OVCAR-5
A498 = system: A498
Hs-578T = system: Hs-578T
RPMI-8226 = system: RPMI-8226
SNB-75 = system: SNB-75
Malme-3M = system: Malme-3M
SF-539 = system: SF-539
M14 = system: M14
SR = system: SR
KM12 = system: KM12
U-251 = system: U-251
HOP-92 = system: HOP-92
UACC-62 = system: UACC-62
OVCAR-4 = system: OVCAR-4
NCI-H226 = system: NCI-H226
BT-549 = system: BT-549
SNB-19 = system: SNB-19
CCRF-CEM = system: CCRF-CEM
MOLT-4 = system: MOLT-4
PC-3 = system: PC-3
UACC-257 = system: UACC-257
MDA-MB-435 = system: MDA-MB-435
COLO 205 = system: COLO 205
UO-31 = system: UO-31
SK-MEL-2 = system: SK-MEL-2
SK-MEL-28 = system: SK-MEL-28
IGROV-1 = system: IGROV-1
SF-268 = system: SF-268
HOP-62 = system: HOP-62
NCI-H522 = system: NCI-H522
MCF7 = system: MCF7
MDA-N = system: MDA-N
786-0 = system: 786-0
ACHN = system: ACHN
HT-29 = system: HT-29
EKVX = system: EKVX
K562 = system: K562
HCT-15 = system: HCT-15
SK-MEL-5 = system: SK-MEL-5
NCI-H23 = system: NCI-H23
LOX IMVI = system: LOX IMVI
NCI-H460 = system: NCI-H460
OVCAR-3 = system: OVCAR-3
SF-295 = system: SF-295
SN12C = system: SN12C
DU-145 = system: DU-145
SK-OV-3 = system: SK-OV-3
T47D = system: T47D

## O=C(/C=C/c1cc(F)ccc1F)OCCc1ccccc1
NCI/ADR-RES
  GI50: > 100 µM (inactive)
HCT-116
  GI50: > 100 µM (inactive)
CAKI-1
  GI50: > 100 µM (inactive)
SW-620
  GI50: > 100 µM (inactive)
TK-10
  GI50: > 100 µM (inactive)
MDA-MB-231
  GI50: 63 µM (inactive)
OVCAR-8
  GI50: > 100 µM (inactive)
RXF 393
  GI50: 91.6 µM (inactive)
HCC 2998
  GI50: > 100 µM (inactive)
A549
  GI50: > 100 µM (inactive)
HL-60
  GI50: 16.4 µM (inactive)
OVCAR-5
  GI50: > 100 µM (inactive)
A498
  GI50: > 100 µM (inactive)
Hs-578T
  GI50: 1.67 µM (inactive)
RPMI-8226
  GI50: 47.3 µM (inactive)
SNB-75
  GI50: 83.6 µM (inactive)
Malme-3M
  GI50: > 100 µM (inactive)
SF-539
  GI50: 88.5 µM (inactive)
M14
  GI50: > 100 µM (inactive)
SR
  GI50: 40.2 µM (inactive)
KM12
  GI50: 96.2 µM (inactive)
U-251
  GI50: 33 µM (inactive)
HOP-92
  GI50: 40.6 µM (inactive)
UACC-62
  GI50: 86.5 µM (inactive)
OVCAR-4
  GI50: 0.933 µM (active)
NCI-H226
  GI50: > 100 µM (inactive)
BT-549
  GI50: > 100 µM (inactive)
SNB-19
  GI50: > 100 µM (inactive)
CCRF-CEM
  GI50: 38.3 µM (inactive)
MOLT-4
  GI50: 49.3 µM (inactive)
PC-3
  GI50: 49.4 µM (inactive)
UACC-257
  GI50: > 100 µM (inactive)
MDA-MB-435
  GI50: > 100 µM (inactive)
COLO 205
  GI50: > 100 µM (inactive)
UO-31
  GI50: 95.7 µM (inactive)
SK-MEL-2
  GI50: > 100 µM (inactive)
SK-MEL-28
  GI50: > 100 µM (inactive)
IGROV-1
  GI50: > 100 µM (inactive)
SF-268
  GI50: > 100 µM (inactive)
HOP-62
  GI50: > 100 µM (inactive)
NCI-H522
  GI50: > 100 µM (inactive)
MCF7
  GI50: 42.2 µM (inactive)
MDA-N
  GI50: 91.4 µM (inactive)
786-0
  GI50: 89.3 µM (inactive)
ACHN
  GI50: > 100 µM (inactive)
HT-29
  GI50: 43 µM (inactive)
EKVX
  GI50: > 100 µM (inactive)
K562
  GI50: 52.1 µM (inactive)
HCT-15
  GI50: 35.6 µM
SK-MEL-5
  GI50: 29.2 µM (inactive)
NCI-H23
  GI50: > 100 µM (inactive)

## CCOC(=O)c1cn2c(n1)sc1cc(OC)ccc12
NCI/ADR-RES
  GI50: 19.5 µM (inactive)
HCT-116
  GI50: 5.42 µM (inactive)
CAKI-1
  GI50: 13.5 µM (inactive)
SW-620
  GI50: 3.08 µM (inactive)
TK-10
  GI50: > 100 µM (inactive)
MDA-MB-231
  GI50: 37.3 µM (inactive)
OVCAR-8
  GI50: 6.21 µM (inactive)
RXF 393
  GI50: 13.8 µM (inactive)
HCC 2998
  GI50: 31 µM (inactive)
A549
  GI50: 7.38 µM (inactive)
LOX IMVI
  GI50: 18.2 µM (inactive)
NCI-H460
  GI50: 29.8 µM (inactive)
OVCAR-5
  GI50: 14.7 µM (inactive)
A498
  GI50: 46.3 µM (inactive)
Hs-578T
  GI50: 21 µM (inactive)
RPMI-8226
  GI50: 4.08 µM (inactive)
SNB-75
  GI50: 33.2 µM (inactive)
Malme-3M
  GI50: 27.6 µM (inactive)
SF-539
  GI50: 2.95 µM (inactive)
M14
  GI50: 5.28 µM (inactive)
OVCAR-3
  GI50: 3.85 µM (inactive)
KM12
  GI50: 3.34 µM (inactive)
U-251
  GI50: 2.81 µM (inactive)
HOP-92
  GI50: > 100 µM (inactive)
UACC-62
  GI50: 8.63 µM (inactive)
OVCAR-4
  GI50: > 100 µM (inactive)
NCI-H226
  GI50: 25.1 µM (inactive)
BT-549
  GI50: > 69.7 µM (inactive)
SNB-19
  GI50: 9.82 µM (inactive)
MOLT-4
  GI50: 4.61 µM (inactive)
PC-3
  GI50: 15.2 µM (inactive)
SF-295
  GI50: 7.18 µM (inactive)
UACC-257
  GI50: 80.9 µM (inactive)
MDA-MB-435
  GI50: 1.18 µM (inactive)
COLO 205
  GI50: 3.4 µM (inactive)
UO-31
  GI50: 10.9 µM (inactive)
SN12C
  GI50: 7.41 µM (inactive)
SK-MEL-2
  GI50: 14.9 µM (inactive)
SK-MEL-28
  GI50: > 100 µM (inactive)
IGROV-1
  GI50: 26.7 µM (inactive)
SF-268
  GI50: 27.4 µM (inactive)
HOP-62
  GI50: 13 µM (inactive)
NCI-H522
  GI50: 18 µM (inactive)
MCF7
  GI50: 5.13 µM (inactive)
MDA-N
  GI50: 2.6 µM (inactive)
786-0
  GI50: 6.21 µM (inactive)
ACHN
  GI50: 8.75 µM (inactive)
HT-29
  GI50: 2.82 µM (inactive)
EKVX
  GI50: > 53.3 µM (inactive)
K562
  GI50: 3.75 µM (inactive)
HCT-15
  GI50: 3.89 µM
DU-145
  GI50: 4.07 µM (inactive)
SK-MEL-5
  GI50: 2.72 µM (inactive)
NCI-H23
  GI50: > 47.5 µM (inactive)
SK-OV-3
  GI50: 30.1 µM (inactive)

## COc1cc2c(c(O)c1OC)C(O)C1CCC(=O)N1C2c1ccc2c(c1)OCO2 (stereo not given)
NCI/ADR-RES
  GI50: > 100 µM (inactive)
HCT-116
  GI50: > 100 µM (inactive)
CAKI-1
  GI50: > 100 µM (inactive)
SW-620
  GI50: > 100 µM (inactive)
TK-10
  GI50: > 100 µM (inactive)
MDA-MB-231
  GI50: > 100 µM (inactive)
OVCAR-8
  GI50: > 100 µM (inactive)
RXF 393
  GI50: > 100 µM (inactive)
HCC 2998
  GI50: > 100 µM (inactive)
A549
  GI50: > 100 µM (inactive)
LOX IMVI
  GI50: > 100 µM (inactive)
NCI-H460
  GI50: > 100 µM (inactive)
HL-60
  GI50: > 100 µM (inactive)
OVCAR-5
  GI50: > 100 µM (inactive)
A498
  GI50: > 100 µM (inactive)
SNB-75
  GI50: 81.3 µM (inactive)
Malme-3M
  GI50: > 100 µM (inactive)
SF-539
  GI50: > 100 µM (inactive)
M14
  GI50: > 100 µM (inactive)
SR
  GI50: > 100 µM (inactive)
OVCAR-3
  GI50: > 100 µM (inactive)
KM12
  GI50: > 100 µM (inactive)
U-251
  GI50: > 100 µM (inactive)
HOP-92
  GI50: > 100 µM (inactive)
UACC-62
  GI50: > 100 µM (inactive)
OVCAR-4
  GI50: > 100 µM (inactive)
NCI-H226
  GI50: > 100 µM (inactive)
BT-549
  GI50: > 100 µM (inactive)
SNB-19
  GI50: > 100 µM (inactive)
CCRF-CEM
  GI50: > 100 µM (inactive)
MOLT-4
  GI50: > 100 µM (inactive)
PC-3
  GI50: > 100 µM (inactive)
SF-295
  GI50: > 100 µM (inactive)
UACC-257
  GI50: > 100 µM (inactive)
MDA-MB-435
  GI50: > 100 µM (inactive)
COLO 205
  GI50: > 100 µM (inactive)
UO-31
  GI50: > 100 µM (inactive)
SN12C
  GI50: > 100 µM (inactive)
SK-MEL-28
  GI50: > 100 µM (inactive)
IGROV-1
  GI50: > 100 µM (inactive)
SF-268
  GI50: > 100 µM (inactive)
HOP-62
  GI50: > 100 µM (inactive)
NCI-H522
  GI50: > 100 µM (inactive)
MCF7
  GI50: > 100 µM (inactive)
786-0
  GI50: > 100 µM (inactive)
ACHN
  GI50: > 100 µM (inactive)
HT-29
  GI50: 80.2 µM (inactive)
EKVX
  GI50: > 100 µM (inactive)
T47D
  GI50: > 100 µM (inactive)
K562
  GI50: > 100 µM (inactive)
HCT-15
  GI50: > 100 µM
DU-145
  GI50: > 100 µM (inactive)
NCI-H23
  GI50: > 100 µM (inactive)
SK-OV-3
  GI50: > 100 µM (inactive)
